Literature values, collected in patent US4431807A, “4-Methyl-5-(unsubstituted and substituted phenoxy)-6-methoxy-8-(aminoalkylamino)quinolines” (priority 1981, dated 1984).
Where two headings read alike, the source gives them in different places.

Key:
Plasmodium cynomolgi = details: prior art compounds; cited from earlier work
Plasmodium berghei = details: cited from earlier work; for Δ MST / Cures: 5 mice, Table I

In the case of `COc1cc(NC(C)CCCN)c2ncccc2c1Oc1ccc(F)cc1` (stereo not shown) [5-(4-Fluorophenoxy)Primaquine, 5-(4-fluorophenoxy)primaquine], the “Radical curative activity relative to primaquine” value (Plasmodium cynomolgi) is listed as “no more active than primaquine”, the “Δ MST” value (Plasmodium berghei; 80 mg/kg) is listed as 7.0 days and the “Δ MST” value (Plasmodium berghei; 160 mg/kg) is listed as 9 days. For the same molecule, the Cures (Plasmodium berghei; 320 mg/kg) was 5C, the Cures (Plasmodium berghei; 640 mg/kg) was 5C and the Suppressive activity (Plasmodium berghei; 320 and 640 mg/kg) was “active and non-toxic”. For the same molecule, the “Suppressive activity relative to mefloquine” value (Plasmodium berghei; prior art compound) was “distinctly inferior”.
